According to patent publication US8293734B2, “Nitroimidazooxazine and nitroimidazooxazole analogues and their uses” (priority 2009, dated 2012):
Converted amounts (≈) assume the structure as drawn.

Experiments:
[1] = test system: VERO cells (CCL-81); assay: Mammalian cell cytotoxicity assay (tetrazolium dye); assay type: cell-based; settings: Chlorocebus sabaeus, 72 h exposure, read-out: IC50 VERO
Experimental: (b) Mammalian cell cytotoxicity assay. This was assessed against VERO cells (CCL-81, American Type Culture Collection) in a 72 h exposure, using a tetrazolium dye assay (Falzari et al., 2005).

[2] = test system: Trypanosoma cruzi amastigotes (Tulahuen C2C4 strain); assay: Trypanosoma cruzi assay in infected L-6 cells; assay type: cell-based; settings: L6, 96 h incubation, read-out: IC50 T. cruzi
Experimental: (§1) (c) Antiprotozoal screening. Compounds were evaluated for their activities against both Trypanosoma cruzi amastigotes and Leishmania donovani amastigotes (free or encapsulated in macrophages), according to the following protocols:
(i) Trypanosoma cruzi assay. L-6 cells (2×10^3) in medium (100 μL of RPMI 1640 supplemented with 2 mM L-glutamine plus 10% heat inactivated fetal calf serum) were seeded in 96-well microtitre plates (Costar™) and incubated at 37° C. (5% CO2) for 1d. A suspension (50 μL) of Trypanosoma cruzi trypomastigotes (5×10^3 of Tulahuen C2C4 strain, containing the β-galactosidase gene) was added, and the cells were incubated at 37° C. (5% CO2) for a further 48 h to establish the infection. The medium was removed and replaced by fresh medium and the infected cells were then incubated at 37° C. (5% CO2) for 96 h in either medium alone or in the presence of serial (3-fold) dilutions of test compounds (initially prepared as 10 mg/mL stock solutions in DMSO and diluted into medium). Benznidazole was employed as a standard in each assay. Following incubation, chlorophenol red glycoside (100 mM) in 0.1% Nonidet P40/PBS (50 μL) was added, and (after 6 h) the absorbance at 540 nm was measured and used to calculate the IC50 values.

[3] = test system: L. donovani amastigotes (MHOM-ET-67/L82) in mouse macrophages; assay: Leishmania donovani infected macrophage assay; assay type: cell-based; settings: 96 h incubation, read-out: IC50 L. donovani macro
Experimental: as §1
(iii) Leishmania donovani infected macrophage assay. Freshly harvested mouse macrophages in medium (RPMI 1640 plus 10% heat inactivated fetal calf serum) were incubated at 37° C. (5% CO2) for 24 h and then infected (1:3 macrophages to amastigotes) with an axenic L. donovani amastigote culture (MHOM-ET-67/L82) in medium (SM, pH 5.4 plus 10% heat inactivated fetal calf serum). The infected macrophages were seeded at a density of 1.2×10^6/mL (by diluting in RPMI+10% FCS) in 16-well slides (Lab-tek™) and incubated at 37° C. (5% CO2) for 24 h. The medium was removed and replaced by fresh medium (RPMI 1640+10% FCS), and this was repeated following mixing. The infected macrophages were then incubated at 37° C. (5% CO2) for 96 h in either medium alone or in the presence of serial (3-fold) dilutions of test compounds (initially prepared as 10 mg/mL stock solutions in DMSO and diluted into medium). Miltefosin was employed as a standard in each assay. […], the slides were fixed (5 min in 100% MeOH) and stained (10% Giemsa, 10 min). The ratio of infected to uninfected macrophages was determined by microscopic examination, and the IC50 values were then calculated by linear regression analysis.

[4] = test system: Axenically grown L. donovani amastigotes (MHOM-ET-67/L82); assay: Axenic Leishmania donovani assay; assay type: cell-based; settings: 70 h incubation, read-out: IC50 L. donovani axen
Experimental: as §1
(ii) Axenic Leishmania donovani assay. Axenically grown L. donovani amastigotes (MHOM-ET-67/L82) from a healthy culture in log phase were seeded at a density of 1×10^6/mL medium (SM, pH 5.4 plus 10% heat inactivated fetal calf serum) in 96-well microtitre plates (Costar™) and incubated at 37° C. (5% CO2) for 70 h in either medium alone or in the presence of serial (3-fold) dilutions of test compounds (initially prepared as 10 mg/mL stock solutions in DMSO and diluted into medium). Miltefosin was employed as a standard in each assay. After incubation, Resazurin fluorescent dye was added to each well, and incubation was continued for an additional 2 h. The IC50 values were determined from measurements of the fluorescence data.

[5] = Stability to human liver microsomes; assay type: in vitro ADME; settings: 1 μM compound, 60 min, 37° C., 0.5 mg/mL protein
Experimental: (§2) (a) Stability of the compounds to human and mouse microsomes. Test compounds (1 μM) were incubated at 37° C. with pooled human or CD-1 mouse liver microsome preparations (0.5 mg/mL final protein concentration) and an NADPH regenerating system (MgCl2, 3.3 mM; G6P, 3.3 mM; G6PD, 0.4 U/mL; NADP+, 1.3 mM) in phosphate buffer (75 mM, pH 7.4), with a final volume of 200 μL. The compounds were dissolved in DMSO such that the final DMSO concentration was 0.5%. Reactions were stopped at 0 and 60 min by the addition of MeCN (100 μL) containing 0.2 μM metoprolol as an internal standard. Samples were diluted 10× and centrifuged prior to analysis by LC-MS/MS using electrospray ionization and SRM monitoring using a gradient LC method. LC peak areas were integrated and expressed as analyte/IS peak area ratios (PAR), and a mean value for each time point was calculated from the duplicates. The percent remaining value was calculated as: % remaining=100×(Mean PART60/Mean PART0).

[6] = Stability to mouse liver microsomes; assay type: in vitro ADME, CD-1 mouse; settings: 1 μM compound, 60 min, 37° C., 0.5 mg/mL protein
Experimental: as §2

With `O=[N+]([O-])c1cn2c(n1)OCC(COCc1ccc(OC(F)(F)F)cc1)C2` (stereo not shown) [Compound 72, 2-nitro-6-({[4-(trifluoromethoxy)benzyl]oxy}methyl)-6,7-dihydro-5H-imidazo[2,1-b][1,3]oxazine] the melting point was 92 to 93 °C, the IC50 [1] was 46 µM and the IC50 [2] was 0.62 µg/mL (≈ 1.66 µM). For the same molecule, the IC50 [3] was 0.55 µg/mL (≈ 1.47 µM), the IC50 [4] was 0.089 µg/mL (≈ 0.238 µM) and the “Microsomes (% remaining) Human” value [5] was 71%. For the same molecule, the “Microsomes (% remaining) Mouse” value [6] was 41%.
